The text below walks through data of patent publication US20230271941A1, “COMPOUNDS AND COMPOSITIONS FOR TREATING CONDITIONS ASSOCIATED WITH STING ACTIVITY” (IFM Due, Inc., priority 2020, published 2023).

The assay deals with T1, hSTING (Homo sapiens, UniProt Q86WV6, G230A/H232R/R293Q/R71H).
T1 construct: host or cells: THP1-Dual KO-IFNAR2 cells
T1 sequence (Q86WV6 whole entry R71H/G230A/H232R/R293Q): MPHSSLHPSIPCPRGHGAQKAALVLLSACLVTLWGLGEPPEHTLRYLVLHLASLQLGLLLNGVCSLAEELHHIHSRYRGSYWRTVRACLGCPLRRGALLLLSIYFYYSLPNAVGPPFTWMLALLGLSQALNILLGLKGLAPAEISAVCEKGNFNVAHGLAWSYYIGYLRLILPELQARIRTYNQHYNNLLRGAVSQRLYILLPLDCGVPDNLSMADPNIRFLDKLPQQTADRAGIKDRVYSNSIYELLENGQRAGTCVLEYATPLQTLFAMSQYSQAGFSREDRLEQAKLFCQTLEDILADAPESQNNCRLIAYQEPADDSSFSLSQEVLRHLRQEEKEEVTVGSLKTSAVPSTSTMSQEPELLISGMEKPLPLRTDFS
As to the kind of experiment: STING reporter assay: THP1-Dual KO-IFNAR2 cells stimulated with 2′3′cGAMP, luciferase reporter activity. Type of assay: cell-based. To be noted: 15 μM 2′3′cGAMP transfected with Lipofectamine 2000, 24 h, luciferase reporter (QUANTI-Luc). As to the method:
STING pathway activation by the compounds described herein was measured using THP1-Dual™ cells (KO-IFNAR2).
THP1-Dual™ KO-IFNAR2 Cells (obtained from invivogen) were maintained in RPMI, 10% FCS, 5 ml P/S, 2 mM L-glut, 10 mM Hepes, and 1 mM sodium pyruvate. Compounds were spotted in empty 384 well tissue culture plates (Greiner 781182) by Echo for a final concentration of 0.0017-100 μM. Cells were plated into the TC plates at 40 μL per well, 2×10E6 cells/mL. For activation with STING ligand, 2′3′cGAMP (MW 718.38, obtained from Invivogen), was prepared in Optimem media.
The following solutions were prepared for each 1×384 plate: • Solution A: 2 mL Optimem with one of the following stimuli: • 60 μL of 10 mM 2′3′cGAMP→150 μM stock • Solution B: 2 mL Optimem with 60 μL Lipofectamine 2000→Incubate 5 min at RT
2 mL of solution A and 2 ml Solution B was mixed and incubated for 20 min at room temperature (RT). 20 μL of transfection solution (A+B) was added on top of the plated cells, with a final 2′3′cGAMP concentration of 15 μM. The plates were then centrifuged immediately at 340 g for 1 minute, after which they were incubated at 37° C., 5% CO2, >98% humidity for 24 h. Luciferase reporter activity was then measured. EC50 values were calculated by using standard methods known in the art.
Luciferase reporter assay: 10 μL of supernatant from the assay was transferred to white 384-plate with flat bottom and squared wells. One pouch of QUANTI-Luc™ Plus was dissolved in 25 mL of water. 100 μL of QLC Stabilizer per 25 mL of QUANTI-Luc™Plus solution was added. 50 μL of QUANTI-Luc™ Plus/QLC solution per well was then added. Luminescence was measured on a Platereader (e.g., Spectramax I3X (Molecular Devices GF3637001)).
Luciferase reporter activity was then measured. EC50 values were calculated by using standard methods known in the art.
In general terms: A reporter such as luciferase makes a cellular process visible.
For orientation: EC50 means the midpoint of the concentration-response curve. `O=C(Nc1c[nH]c2cc(F)c(F)cc12)c1nn(Cc2ccc(C(F)(F)F)cc2)c(=O)[nH]1` [Compound 142, N-(5,6-difluoro-1H-indol-3-yl)-5-oxo-1-(4-(trifluoromethyl)benzyl)-4,5-dihydro-1H-1,2,4-triazole-3-carboxamide] returned a concentration giving a half-maximal response (EC50) of 1000 to 5000 nM. `O=C(Nc1c[nH]c2cc(F)c(F)cc12)c1cc(-c2cccc(Cl)c2)[nH]n1` [Compound 174, 5-(3-chlorophenyl)-N-(5,6-difluoro-1H-indol-3-yl)-1H-pyrazole-3-carboxamide] gave an EC50 of 200 to 1000 nM. For `O=C(Nc1c[nH]c2cc(F)c(F)cc12)c1cn(-c2ccc(C(F)(F)F)cc2)nn1` [Compound 106, N-(5,6-difluoro-1H-indol-3-yl)-1-(4-(trifluoromethyl)phenyl)-1H-1,2,3-triazole-4-carboxamide] the value was 200 to 1000 nM; for `Cc1cc(Cn2cc(C(=O)Nc3c[nH]c4cc(F)c(F)cc34)cn2)cnc1OCC(F)(F)F` [Compound 163, N-(5,6-difluoro-1H-indol-3-yl)-1-((5-methyl-6-(2,2,2-trifluoroethoxy)pyridin-3-yl)methyl)-1H-pyrazole-4-carboxamide], 40 to 200 nM. For `Cn1nc(C(=O)Nc2c[nH]c3cc(F)c(F)cc23)cc1-c1ccccc1` [Compound 172, N-(5,6-difluoro-1H-indol-3-yl)-1-methyl-5-phenyl-1H-pyrazole-3-carboxamide] the value was 200 to 1000 nM; for `O=C(Nc1c[nH]c2cc(F)c(Cl)cc12)c1cn(Cc2ccc(C(F)(F)F)cc2)nn1` [Compound 168, N-(5-chloro-6-fluoro-1H-indol-3-yl)-1-(4-(trifluoromethyl)benzyl)-1H-1,2,3-triazole-4-carboxamide], 200 to 1000 nM; for `Cc1cncc2c(NC(=O)c3cnn(Cc4ccc(C(F)(F)F)cc4)c3)c[nH]c12` [Compound 125, N-(7-methyl-1H-pyrrolo[3,2-c]pyridin-3-yl)-1-(4-(trifluoromethyl)benzyl)-1H-pyrazole-4-carboxamide], 1000 to 5000 nM. For `O=C(Nc1c[nH]c2cc(F)c(F)cc12)c1cc(Cc2ccc(C(F)(F)F)cc2)no1` [Compound 151, N-(5,6-difluoro-1H-indol-3-yl)-3-(4-(trifluoromethyl)benzyl)isoxazole-5-carboxamide] the value was 200 to 1000 nM; for `CC(C)n1cc(-c2ccc3[nH]cc(NC(=O)c4ccn(Cc5ccc(C(F)(F)F)cc5)n4)c3c2)cn1` [Compound 133, N-(5-(1-isopropyl-1H-pyrazol-4-yl)-1H-indol-3-yl)-1-(4-(trifluoromethyl)benzyl)-1H-pyrazole-3-carboxamide], 200 to 1000 nM; for `Cc1cc(-n2cc(C(=O)Nc3c[nH]c4cc(F)c(F)cc34)nn2)cnc1OCC(F)(F)F` [Compound 165, N-(5,6-difluoro-1H-indol-3-yl)-1-(5-methyl-6-(2,2,2-trifluoroethoxy)pyridin-3-yl)-1H-1,2,3-triazole-4-carboxamide], 200 to 1000 nM. `O=C(Nc1c[nH]c2ccc(F)cc12)c1cnn(Cc2ccc(C(F)(F)F)cc2)c1` [Compound 115, N-(5-fluoro-1H-indol-3-yl)-1-(4-(trifluoromethyl)benzyl)-1H-pyrazole-4-carboxamide] showed an EC50 of 200 to 1000 nM. Take `Cn1nc(C(=O)Nc2c[nH]c3cc(F)c(Cl)cc23)cc1Cc1ccc(C(F)(F)F)cc1` [Compound 162, N-(5-chloro-6-fluoro-1H-indol-3-yl)-1-methyl-5-(4-(trifluoromethyl)benzyl)-1H-pyrazole-3-carboxamide]: the EC50 is 40 to 200 nM. `O=C(Nc1c[nH]c2cc(F)c(F)cc12)c1cc(-c2cccnc2)[nH]n1` [Compound 119, N-(5,6-difluoro-1H-indol-3-yl)-5-(pyridin-3-yl)-1H-pyrazole-3-carboxamide] returned an EC50 of 5000 to 100000 nM. For `CC(C)n1cc(-c2cc(F)c3[nH]cc(NC(=O)c4cnn(Cc5ccc(C(F)(F)F)cc5)c4)c3c2)cn1` [Compound 146, N-(7-fluoro-5-(1-isopropyl-1H-pyrazol-4-yl)-1H-indol-3-yl)-1-(4-(trifluoromethyl)benzyl)-1H-pyrazole-4-carboxamide] the value was 200 to 1000 nM; for `O=C(Nc1c[nH]c2ccccc12)c1cn(-c2cnc(OCC(F)(F)F)c(F)c2)nn1` [Compound 157, 1-(5-fluoro-6-(2,2,2-trifluoroethoxy)pyridin-3-yl)-N-(1H-indol-3-yl)-1H-1,2,3-triazole-4-carboxamide], 5000 to 100000 nM; for `O=C(Nc1c[nH]c2ccc(Cl)cc12)c1cn(-c2cnc(NCC(F)(F)F)c(F)c2)nn1` [Compound 158, N-(5-chloro-1H-indol-3-yl)-1-(5-fluoro-6-((2,2,2-trifluoroethyl)amino)pyridin-3-yl)-1H-1,2,3-triazole-4-carboxamide], 200 to 1000 nM. For `O=C(Nc1c[nH]c2cc(F)c(F)cc12)c1csc(-c2ccc(OC(F)(F)F)cc2)n1` [Compound 177, N-(5,6-difluoro-1H-indol-3-yl)-2-(4-(trifluoromethoxy)phenyl)thiazole-4-carboxamide] the value was 1000 to 5000 nM; for `O=C(Nc1c[nH]c2cc(F)c(F)cc12)c1cn(-c2ccnc(COCC(F)(F)F)c2)nn1` [Compound 156, N-(5,6-difluoro-1H-indol-3-yl)-1-(2-((2,2,2-trifluoroethoxy)methyl)pyridin-4-yl)-1H-1,2,3-triazole-4-carboxamide], 1000 to 5000 nM.

`O=C(Nc1c[nH]c2cc(F)c(Cl)cc12)c1cc(Cc2ccc(C(F)(F)F)cc2)n(C(F)F)n1` [Compound 166, N-(5-chloro-6-fluoro-1H-indol-3-yl)-1-(difluoromethyl)-5-(4-(trifluoromethyl)benzyl)-1H-pyrazole-3-carboxamide] displayed an EC50 of 200 to 1000 nM. For `O=C(Nc1c[nH]c2cc(F)c(F)cc12)c1cc(CC2CCN(CC(F)(F)F)CC2)no1` [Compound 155, N-(5,6-difluoro-1H-indol-3-yl)-3-((1-(2,2,2-trifluoroethyl)piperidin-4-yl)methyl)isoxazole-5-carboxamide] the value was 40 to 200 nM; for `O=C(Nc1c[nH]c2ccccc12)c1cncn1Cc1ccc(C(F)(F)F)c(Cl)c1` [Compound 132, 1-(3-chloro-4-(trifluoromethyl)benzyl)-N-(1H-indol-3-yl)-1H-imidazole-5-carboxamide], 1000 to 5000 nM; for `CC(C)(C)OC(=O)N1CCC(n2cc(C(=O)Nc3c[nH]c4cc(F)c(F)cc34)nn2)CC1` [Compound 169, tert-butyl 4-(4-((5,6-difluoro-1H-indol-3-yl)carbamoyl)-1H-1,2,3-triazol-1-yl)piperidine-1-carboxylate], 1000 to 5000 nM. For `O=C(Nc1c[nH]c2cc(F)c(F)cc12)c1cc(-c2ccccc2)[nH]n1` [Compound 175, N-(5,6-difluoro-1H-indol-3-yl)-5-phenyl-1H-pyrazole-3-carboxamide] the value was 200 to 1000 nM. For `O=C(Nc1c[nH]c2cc(F)c(F)cc12)c1cc(CCc2ccc(C(F)(F)F)cc2)no1` [Compound 150, N-(5,6-difluoro-1H-indol-3-yl)-3-(4-(trifluoromethyl)phenethyl)isoxazole-5-carboxamide] the value was 40 to 200 nM; for `Cn1nc(C(=O)Nc2c[nH]c3cc(F)c(F)cc23)cc1Cc1ccc(C(F)(F)F)cc1` [Compound 113, N-(5,6-difluoro-1H-indol-3-yl)-1-methyl-5-(4-(trifluoromethyl)benzyl)-1H-pyrazole-3-carboxamide], 200 to 1000 nM.
